Test [1] concerns C. albicans. Briefly: Microbicidal suspension assay (colony counts). It is filed as cell-based, Candida albicans. The conditions noted are these: 2 hr, 37° C., 10 mM PIPES, pH 7.4, 5 mM glucose; FIG. 9D. As to the method:
(§1) Killing was quantified by colony counts. Panels B-D show incubation of the indicated organisms with RTD-1 peptide: Listeria monocytogenes and Staphylococcus aureus (Panel B); Salmonella typhimurium and Escherichia coli (Panel C); and Cryptococcus neoformans and Candida albicans (Panel D). The limit of detection (1 colony per plate) was equal to 1×10^3 colony forming units in the incubation mixture.
(§2) Additional antimicrobial assays were conducted on other microbial organisms. […] In FIG. 9A, S. aureus 502a was incubated with increasing concentrations of natural or synthetic peptide for 30 min at 37° C. in 10 mM PIPES, pH 7.4, containing 5 mM glucose. Killing was quantified by colony counts. […] The limit of detection (1 colony per plate) was equal to 1×10^3 colony forming units in the incubation mixture.

The subject of test [2] is L. monocytogenes. As to the kind of experiment: Microbicidal suspension assay (colony counts). The following applies: 2 hr, 37° C., 10 mM PIPES, pH 7.4, 5 mM glucose; FIG. 9B. It is filed as cell-based, Listeria monocytogenes. The method, then:
as §1, §2

The test system of test [3] is Escherichia coli ML35. As to the kind of experiment: Agar diffusion assay. It is filed as cell-based. The method, then: (§3) The purified chromatographic peaks were screened for antibacterial activity against Escherichia coli ML35 and Staphylococcus aureus 502a. Briefly, antibacterial activity was screened with an agar diffusion assay using lyophilized samples of HPLC fractions dissolved in 5 μl of 0.01% acetic acid as described by Lehrer et al., J. Immunol. Methods 137:167-173 (1991)).
(§4) Agar diffusion assays and microbicidal suspension assays were used to examine the activity of theta defensin against Staphylococcus aureus 502A, Escherichia coli ML35, Listeria monocytogenes, and Cryptococcus neoformans.

Test [4] relates to Staphylococcus aureus 502a. Briefly: Agar diffusion assay. It is filed as cell-based. The method, then:
as §3, §4

The test system of test [5] is E. coli ML 35. As to the kind of experiment: Microbicidal suspension assay (colony counts). It is filed as cell-based, Escherichia coli. The method, then:
as §1, §2
(§5) An acyclic version of theta defensin was also tested for antimicrobial activity. […] Killing activity was quantified by colony counts after 18 hrs.

Test [6] relates to Listeria monocytogenes EGD. Briefly: Agar diffusion assay. It is filed as cell-based. The following applies: 10, 30, 100 or 300 μg/ml; agar seeded with 1×10^6 colony forming units; FIG. 7.
Source text: as §4

Test [7] deals with Cryptococcus neoformans 271A. As to the kind of experiment: Agar diffusion assay. The conditions noted are these: 10, 30, 100 or 300 μg/ml; agar seeded with 1×10^6 colony forming units; FIG. 7. It is filed as cell-based.
Source text: as §4

Test [8] concerns Staphylococcus aureus 502a. Briefly: Microbicidal suspension assay (colony counts). It is filed as cell-based. The method, then:
S. aureus 502a was incubated with increasing concentrations of natural or synthetic theta defensin peptide. Killing was quantified by colony counts.
Killing was quantified by colony counts. […] The limit of detection (1 colony per plate) was equal to 1×10^3 colony forming units in the incubation mixture.
Killing activity was quantified by colony counts after 18 hrs.
Killing was quantified by colony counts.
as §2
It has been proposed that salt sensitivity of airway defensins underlies the susceptibility of cystic fibrosis patients to pulmonary infections.
as §5

For test [9], the system named is S. typhimurium. As to the kind of experiment: Microbicidal suspension assay (colony counts). It is filed as cell-based, Salmonella typhimurium. The conditions noted are these: 2 hr, 37° C., 10 mM PIPES, pH 7.4, 5 mM glucose; FIG. 9C. The method, then: as §1, §2
Test [10] deals with C. neoformans. Briefly: Microbicidal suspension assay (colony counts). It is filed as cell-based, Cryptococcus neoformans. The conditions noted are these: 2 hr, 37° C., 10 mM PIPES, pH 7.4, 5 mM glucose; FIG. 9D. The method, then: as §1, §2
Setting [11] is: 10, 30, 100 or 300 μg/ml, agar seeded with 1×10^6 colony forming units, FIG. 7.
Setting [12] is: lyophilized HPLC fractions in 5 μl of 0.01% acetic acid, compared with other isolated leukocyte peptides.

Positions of bridges follow the written chain, without caps; N, C: chain ends. Residues, ends and D or L forms follow the SMILES beside them.

Regarding `CC[C@H](C)[C@@H]1NC(=O)[C@@H]2CSSC[C@H](NC(=O)[C@H](CCCNC(=N)N)NC(=O)[C@@H]3CSSC[C@H](NC1=O)C(=O)N[C@@H]([C@@H](C)O)C(=O)N[C@@H](CCCNC(=N)N)C(=O)NCC(=O)N[C@@H](Cc1ccccc1)C(=O)N3)C(=O)N[C@@H](CC(C)C)C(=O)N[C@H]1CSSC[C@H](NC(=O)[C@H](C(C)C)NC(=O)CNC(=O)[C@H](CCCNC(=N)N)NC(=O)[C@H](CCCNC(=N)N)NC1=O)C(=O)N[C@@H](CCCNC(=N)N)C(=O)N2` [RTD-1] (cyclo(GFCRCLCRRGVCRCICTR); disulfide 3-16, 5-14, 7-12), the microbicidal activity result in [1] is “killed”; in test [2], “killed”; in test [5] (2 hr, 37° C., 10 mM PIPES, pH 7.4, 5 mM glucose, FIG. 9C) it was “killed”; in test [8] (37° C., 10 mM PIPES, pH 7.4, 5 mM glucose, FIG. 9), “killed”; in [9], “killed”; in test [10], “killed”. The zone of inhibition result in [3] (setting [11]), in test [4] (setting [11]), in test [6] and in test [7] was “dose dependent increase in the zone of inhibition” each time. In addition, the “antibacterial activity (screen of purified chromatographic peaks)” value in test [3] (setting [12]) and in test [4] (setting [12]) was “greatest activity of any of the peptides isolated” in each case. Also, the “activity of cyclic form relative to acyclic form” value in [5] (gram negative bacteria (E. coli)) and in test [8] (gram positive bacteria (Staphylococcus)) was “about three times more active” throughout. The “effect of NaCl on staphylocidal activity” value in test [8] (10 μg/ml peptide, 2 h incubation, NaCl concentrations as high as 150 mM, FIG. 9E) is reported as “little effect”. The “peptide concentration reducing colony counts to below the level of detection” value in [8] (2 h at 37° C. in 10 mM PIPES, pH 7.4, FIG. 8) is at least 4 µg/mL.

The record behind these values is US6890537B2, “Antimicrobial theta defensins and methods of using same” (The Regents of the University of California, priority 1999, dated 2005).
